Measured values reported in PMC7185459 (Antiviral Research, 2015).
Like-named read-outs stand apart in the source and are kept apart here.

Columns and labels:
hRSV strain Long [1] = details: HEp-2 cells
hRSV strain Long [2] = test: microbe, parasite or virus in culture; details: human respiratory syncytial virus, HEp-2, 96 h
[3] = system: SRI 29365-resistant mutant hRSV (G protein A63V); type: cell-based, Human respiratory syncytial virus
human metapneumovirus = test: In vitro CPE assay, human metapneumovirus; type: cell-based
Nipah virus = type: cell-based
[4] = system: Venezuelan equine encephalitis virus; type: cell-based
Dengue 2 virus = test: In vitro CPE assay, Dengue 2 virus; type: cell-based
human influenza virus = test: In vitro CPE assay, human influenza virus; type: cell-based
SARS CoV = type: cell-based
RSV/A/Tracy = type: in vivo; details: cotton rat, intraperitoneal at -1, +6, +24 h, vs vehicle, day +4
hRSV strain Long [5] = details: A549 cells
physchem [6] = test: physchem
physchem [7] = test: physchem; remark: listed apart in the source
hRSV strain Long [8] = test: microbe, parasite or virus in culture; details: human respiratory syncytial virus, A549

Row | Structure (SMILES) | SI (CC50/EC50) (hRSV strain Long [1]) | EC50 (hRSV strain Long [2]) [nM] | resistance of mutant virus relative to wt virus EC50 [3] [fold] | reduction in CPE due to antiviral activity (human metapneumovirus) | reduction in CPE due to antiviral activity (Nipah virus) | reduction in CPE due to antiviral activity [4] | reduction in CPE due to antiviral activity (Dengue 2 virus) | reduction in CPE due to antiviral activity (human influenza virus) | reduction in CPE due to antiviral activity (SARS CoV) | body weight (RSV/A/Tracy) | lung lobe weight (RSV/A/Tracy) | SI (CC50/EC50) (hRSV strain Long [1]; listed as 2) | SI (CC50/EC50) (hRSV strain Long [5]) | solubility (physchem [6]) [µM] | half-life (physchem [7]) [h] | EC50 (hRSV strain Long [8]) [nM]
1 | c1csc(-c2nn3c(Cn4cnc5ccccc54)nnc3s2)c1 [Compound 1, 1-[6-(2-thienyl)[1,2,4]triazolo[3,4-b][1,3,4]thiadiazol-3-yl]methyl-1H-benzimidazole] | 391 | 230 |  |  |  |  |  |  |  |  |  |  |  |  |  | 
2 | c1coc(-c2nn3c(Cn4cnc5ccccc54)nnc3s2)c1 [SRI 29365, 1-[6-(2-furyl)[1,2,4]triazolo[3,4-b][1,3,4]thiadiazol-3-yl]methyl-1H-benzimidazole] |  |  | > 100 | No significant reduction in CPE | No significant reduction in CPE | No significant reduction in CPE | No significant reduction in CPE | No significant reduction in CPE | No significant reduction in CPE | no significant difference | no significant difference | 83 | > 83 | < 400 | > 60 | 1200
